Measured values from patent US6822146B2, “Sulfonylurea-tolerant sunflower line M7” (priority 2000, dated 2004).
Where two headings read alike, the source gives them in different places.

Columns and labels:
H89A × M4M11 = format: in vivo, sunflower; details: variety G
Text: (§1) To generate the hybrids C, D and E, the fourth generation self-pollinated maintainer mutant lines M4M12, M4M11 and M4M7 were chemically sterilized by applying at the bud “star” flower stage a small amount of gibberellic acid solution to sterilize the pollen according to the general method described in Sunflower Science Technology, J. F. Carter ed. (Number 19 in the series “Agronomy”) pp. 339-386. This treatment enables maintainer plants to behave as CMS inbred lines and allows the production of heterozygous resistant hybrids, with the herbicide resistant source coming from the female side. Such crosses allowed evaluating the sexual effect of the mutation source when introduced on the female side of a cross as described in crosses C, D and E versus the male side of a cross as described in crosses F, G and H. Labels I, J and K identify third generation CMS mutant lines crossed with fourth generation maintainer lines to maintain the highly heritable mutant trait in a male sterile homozygous resistant environment. One skilled in sunflower breeding art understands the meaning of such crosses.
(§2) A rating of 0% phytotoxicity means no crop injury.

H89A × M4M12 = format: in vivo, sunflower; details: variety F
Text: as §1, §2

H89A × M4M7 = format: in vivo, sunflower; details: variety H
Text: as §1, §2

[1] = system: Hybrid control: H89A × RHA274; format: in vivo, sunflower; details: variety A
Text: as §1, §2

[2] = system: Inbred line control: H89A; format: in vivo, sunflower; details: variety B
Text: as §1, §2

GA-M4M12 × RHA274 = assay: Test A field trial, phytotoxicity, variety C; format: in vivo, sunflower; details: variety C
Text: as §1, §2

GA-M4M11 × RHA274 = assay: Test A field trial, phytotoxicity, variety D; format: in vivo, sunflower; details: variety D
Text: as §1, §2

GA-M4M7 × RHA274 = assay: Test A field trial, phytotoxicity, variety E; format: in vivo, sunflower; details: variety E
Text: as §1, §2

BC3-M4M12 = assay: Test A field trial, phytotoxicity, variety I; format: in vivo, sunflower; details: variety I
Text: as §1, §2

BC3-M4M11 = assay: Test A field trial, phytotoxicity, variety J; format: in vivo, sunflower; details: variety J
Text: as §1, §2

BC3-M4M7 = assay: Test A field trial, phytotoxicity, variety K; format: in vivo, sunflower; details: variety K
Text: as §1, §2

[3] = system: Homozygous resistant inbred lines, BC3-M4M12 (I), BC3-M4M11 (J) and BC3-M4M7 (K); assay: Test A summary, homozygous resistant inbred lines; details: Test A application rates; for tolerance of homozygous resistant inbred lines I, J, K: triflusulfuron-methyl at 20 g a.i./ha
Protocol: In a small field trial, the sunflower varieties described in Table 4 were sprayed post-emergence with a variety of sulfonylurea herbicide treatments.
Broadcast post-emergence applications of formulated sulfonylurea herbicides were performed at the 6-leaf development stage using four randomly distributed replications. Application rates were chosen to match the usual use rates of these herbicides in the crops they are registered in Europe. All herbicides except for metsulfuron-methyl were sprayed in combination with Citowet® non-ionic ethoxylated alcohol at 0.25% volume of formulated product per volume of water applied per hectare.
The evaluation of the maximum (i.e. peak) injury to sunflower varieties by sulfonylurea herbicides was measured by visual ratings, which are listed in Table 5. A rating of 0% phytotoxicity means no crop injury. […] A rating of 100% means the complete destruction of all plants.

BC4-M5M7 × PHA155 = assay: Test C field phytotoxicity, BC4-M5M7 × PHA155; format: in vivo, sunflower
Text: as §2

BC4-M5M12 × PHA155 = assay: Test C field phytotoxicity, BC4-M5M12 × PHA155; format: in vivo, sunflower
Text: as §2

[4] = system: H89A × RHA274 (sulfonylurea-susceptible hybrid); assay: Test G control of volunteer sunflower, H89A × RHA274; format: in vivo; details: 240 g a.i./ha; rated 4 weeks after application; scale 0-100
BC2-M3M11 = assay: Test G control of volunteer sunflower, BC2-M3M11; format: in vivo; details: 240 g a.i./ha; rated 4 weeks after application; scale 0-100
BC2-M3M12 = assay: Test G control of volunteer sunflower, BC2-M3M12; format: in vivo; details: 240 g a.i./ha; rated 4 weeks after application; scale 0-100
[5] = system: mutants originating from M11 and M12; details: Test G rates; phenmedipham alone or combined with triflusulfuron-methyl
Text: This test involved sulfonylurea-resistant sunflower progeny BC2-M3M11 and BC2-M3M12, derived from M11 and M12, respectively. Also, a sulfonylurea-susceptible hybrid, H89A×RHA274, was included for comparison. Plants were sprayed with formulated herbicides at the 4-leaf stage. The efficacy of the treatments on the sunflowers was visually rated 4 weeks after application, using a scale where 0 means no control of the sunflowers, 85 means sufficient efficacy level to stop plants from flowering and propagating, and 100 means a complete destruction of the mutants.
Weed control in sugar beet requires 2-3 herbicide applications per season to efficiently control weeds in this slow growing crop.

[6] = postemergence 18.75 g a.i./ha, 7 DAT
[7] = postemergence 18.75 g a.i./ha, 15 DAT
[8] = postemergence 18.75 g a.i./ha, 30 DAT
[9] = postemergence 37.5 g a.i./ha, 7 DAT
[10] = postemergence 37.5 g a.i./ha, 15 DAT
[11] = postemergence 37.5 g a.i./ha, 30 DAT

COc1cc(OC)nc(NC(=O)NS(=O)(=O)c2ncccc2C(=O)N(C)C)n1 [Nicosulfuron, nicosulfuron]
Maximum Phytotoxicity (H89A × M4M11; 30 g a.i./ha post-emergence): 20% | Maximum Phytotoxicity (H89A × M4M12; 30 g a.i./ha post-emergence): 15% | Maximum Phytotoxicity (H89A × M4M7; 30 g a.i./ha post-emergence): 16% | Maximum Phytotoxicity ([1]; 30 g a.i./ha post-emergence): 33% | Maximum Phytotoxicity ([2]; 30 g a.i./ha post-emergence): 54% | Maximum Phytotoxicity (GA-M4M12 × RHA274; 30 g a.i./ha post-emergence): 12% | Maximum Phytotoxicity (GA-M4M11 × RHA274; 30 g a.i./ha post-emergence): 13% | Maximum Phytotoxicity (GA-M4M7 × RHA274; 30 g a.i./ha post-emergence): 13% | Maximum Phytotoxicity (BC3-M4M12; 30 g a.i./ha post-emergence): 8% | Maximum Phytotoxicity (BC3-M4M11; 30 g a.i./ha post-emergence): 23% | Maximum Phytotoxicity (BC3-M4M7; 30 g a.i./ha post-emergence): 14% | tolerance of homozygous resistant lines compared with heterozygous hybrids [3]: the homozygous resistant lines were more tolerant | tolerance of homozygous resistant inbred lines I, J, K [3]: marginally tolerant | Phytotoxicity Rating After Treatment (BC4-M5M7 × PHA155; [6]): 37% | Phytotoxicity Rating After Treatment (BC4-M5M7 × PHA155; [7]): 40% | Phytotoxicity Rating After Treatment (BC4-M5M7 × PHA155; [8]): 18% | Phytotoxicity Rating After Treatment (BC4-M5M7 × PHA155; [9]): 57% | Phytotoxicity Rating After Treatment (BC4-M5M7 × PHA155; [10]): 55% | Phytotoxicity Rating After Treatment (BC4-M5M7 × PHA155; [11]): 50% | Phytotoxicity Rating After Treatment (BC4-M5M12 × PHA155; [6]): 28% | Phytotoxicity Rating After Treatment (BC4-M5M12 × PHA155; [7]): 20% | Phytotoxicity Rating After Treatment (BC4-M5M12 × PHA155; [8]): 18% | Phytotoxicity Rating After Treatment (BC4-M5M12 × PHA155; [9]): 42% | Phytotoxicity Rating After Treatment (BC4-M5M12 × PHA155; [10]): 52% | Phytotoxicity Rating After Treatment (BC4-M5M12 × PHA155; [11]): 50%

COC(=O)Nc1cccc(OC(=O)Nc2cccc(C)c2)c1 [Phenmedipham]
Efficacy on H89A × RHA274 [4]: 0 | Efficacy on BC2-M3M11 (BC2-M3M11): 0 | Efficacy on BC2-M3M12 (BC2-M3M12): 7 | control of sulfonylurea-susceptible or sulfonylurea-resistant volunteer sunflowers [5]: ineffective alone

COc1nc(C)nc(NC(=O)NS(=O)(=O)c2ccccc2OCCCl)n1 [Triasulfuron, triasulfuron]
Maximum Phytotoxicity (H89A × M4M11; 20 g a.i./ha post-emergence): 98% | Maximum Phytotoxicity (H89A × M4M12; 20 g a.i./ha post-emergence): 98% | Maximum Phytotoxicity (H89A × M4M7; 20 g a.i./ha post-emergence): 98% | Maximum Phytotoxicity ([1]; 20 g a.i./ha post-emergence): 100% | Maximum Phytotoxicity ([2]; 20 g a.i./ha post-emergence): 100% | Maximum Phytotoxicity (GA-M4M12 × RHA274; 20 g a.i./ha post-emergence): 94% | Maximum Phytotoxicity (GA-M4M11 × RHA274; 20 g a.i./ha post-emergence): 99% | Maximum Phytotoxicity (GA-M4M7 × RHA274; 20 g a.i./ha post-emergence): 97% | Maximum Phytotoxicity (BC3-M4M12; 20 g a.i./ha post-emergence): 93% | Maximum Phytotoxicity (BC3-M4M11; 20 g a.i./ha post-emergence): 95% | Maximum Phytotoxicity (BC3-M4M7; 20 g a.i./ha post-emergence): 95% | tolerance of homozygous resistant inbred lines I, J, K [3]: as susceptible as the standards
